In assay [1] the test system is prostaglandin E1-stimulated adenylate cyclase of NG 108-15 cells. The settings on record: literature; cited from earlier work.
A further assay concerns opiate receptors. The settings on record: Li, C. H., et al, Proc. Natl. Acad. Sci. 76, 3276 (1979); cited from earlier work.
Assay [2] deals with rat brain opiate receptors. Kind of assay: Receptor binding activity: competitive inhibition of binding of labeled opiate agonist or antagonist to rat brain membranes. As to conditions: result in words. The protocol:
The opiate receptor preparation was prepared from rat membrane preparation isolated from male Sprague-Dawley rats (200-220 g) killed by decapitation. The brains, except for the cerebellum, were homogenized in 40 volumes of ice-cold Tris-HCl buffer pH 7.7. The homogenates were centrifuged at 600 g for 5 minutes, then the supernatant fluid was centrifuged at 49,000 g at 4° C. for 15 minutes. The pellets were re-suspended in 5 ml of 0.05 M Tris-HCl buffer pH 7.7 and incubated at 37° C. for 30 minutes, then centrifuged at 49,000 g at 4° C. for another 15 minutes. The final pellet from each rat brain was then re-suspended in 40 ml of 0.05 M Tris-HCl buffer pH 7.7 containing 100 μg/ml of Bacitracin and used for the binding assays.
The binding experiments were performed either at 25° C. for 20 minutes or at 0° C. for 3 hours. The reaction mixtures contained 1 ml of the rat membrane preparation as described, 1.5 nM of ^3 H-methionine enkephalinamide (38 Ci/m Mole) or ^3 H-naloxone (25 Ci/m Mole) together with bacterial extracts from pβgal or pβgal-end transformed cultures (4.5 mg protein for enkephalinamide rections and 0.65 μg protein for naloxone reactions). At the end of the binding reaction the mixture was filtered under vacuum over glass fiber filters (Whatman, Clifton, N.J., GH-B filters). […]

Assay [3] concerns antiserum directed against mouse β-endorphin. The experiment in a line: Immunological activity: competition with 125I-labeled human β-endorphin for antiserum (radioimmunoassay). In kind it is binding. As to conditions: dilution series of extract, 4° C., 24 hours; FIG. 5. The procedure:
Immunological activity of β-endorphin produced according to the present invention was measured by its ability to compete with radioactively labeled human β-endorphin for antiserum directed against mouse β-endorphin. The human hormone differs from that of mouse only at position 27, where a tyrosine is present instead of histidine residue. […] Antiserum to mouse β-endorphin was prepared as described by Allen, et al., Proc. Nat'l. Acad. Sci. 75, 4972 (1978). […]
In the assay, a dilution series of β-endorphin sample prepared according to the present invention was incubated with a fixed amount of labeled human endorphin and a fixed amount of antiserum. […] The percentage of radioactivity remaining in the pellet was compared to the total radioactivity determined prior to incubation and plotted as a function of the concentration of the cell extracts.

Assay [4] deals with prostaglandin E1-stimulated adenylate cyclase of NG 108-15 cells. Kind of assay: Inhibition of prostaglandin E1-stimulated adenylate cyclase activity in neuroblastoma-glioma hybrid cell line NG 108-15. The settings on record: result in words; for reversal of the adenylate cyclase inhibition by naloxone: naloxone added. Format: biochemical.

`CN1CC[C@]23c4c5ccc(O)c4O[C@H]2[C@@H](O)C=C[C@H]3[C@H]1C5` [morphine]: the “inhibition of prostaglandin E1 stimulation of adenylate cyclase” value in assay [1] is reported as “This stimulation is inhibited by morphine”.
With `C=CCN1CC[C@]23c4c5ccc(O)c4O[C@H]2C(=O)CC[C@@]3(O)[C@H]1C5` [naloxone], in assay [1], the “prevention of the inhibitory effect of morphine on stimulated adenylate cyclase” value was “the inhibitory affect of morphine can be prevented by naloxone”.
Regarding “Gly^31 -endorphin (YGGFMTSEKSQTPLVTLFKNAIIKNAYKKGG; Beta-endorphin; UniProt P01189 237-267, looked up, variant E31G) ["super-agonist" endorphin analog described by Li, C; H]”, in the assay on opiate receptors, the “opiate agonist potency relative to endorphin” value is “more potent opiate agonists than endorphin itself”.
Gly^31 -endorphinamide: the “opiate agonist potency relative to endorphin” value with opiate receptors is on record as “more potent opiate agonists than endorphin itself”.
As for Gly^31 -endorphinylglycine, the “opiate agonist potency relative to endorphin” value with opiate receptors is “more potent opiate agonists than endorphin itself”.
On to “β-endorphin (YGGFMTSEKSQTPLVTLFKNAIIKNAHKKGQ; Beta-endorphin; UniProt P01193 205-235, looked up) [mouse β-endorphin, 31 amino acid polypeptide, released from the bacterial β-galactosidase fusion protein according to the invention]”, for which the “displacement of opiate agonist (enkephalinamide) and opiate antagonist (naloxone) from rat brain opiate receptors” value in assay [2] was “effective inhibitor”; in assay [2] (listed as Endorphin), “displaced both the opiate agonist and the opiate antagonist”. In addition, in assay [3], the “competition with labeled human β-endorphin for antiserum against mouse β-endorphin” value is listed as “immunologically reactive with antiserum raised against mouse endorphin”. Moreover, the “inhibition of prostaglandin E1 stimulation of adenylate cyclase activity” value is “inhibited the adenylate cyclase activity” in assay [4] and “significant inhibition” in assay [4] (listed as Endorphin). Further, the figures for the “reversal of the adenylate cyclase inhibition by naloxone” value in assay [4] and in assay [4] (listed as Endorphin) were “the inhibition was reversed by the addition of naloxone” and “inhibition was reversed by addition of the opiate antagonist naloxone”, respectively.
